Experimental findings from PubChem BioAssay (NCI) are described below.

Common to all, as to test: NCI anticancer screen, dose series, 48 h
Experiment [1] relates to SNB-78 CNS.
In experiment [2] the test system is DMS 273 small cell lung.
The subject of experiment [3] is IGROV1 ovarian.
Experiment [4] has as its system SNB-19 CNS.
Experiment [5] concerns CCRF-CEM leukemia.
Experiment [6] concerns MOLT-4 leukemia.
In experiment [7] the test system is M19-MEL melanoma.
The test system of experiment [8] is BT-549 breast.

Where “and” joins values, the source holds several entries; their conditions need not be identical. Identical values can stand only once.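 Protocol summary: plate cells (96-well), add compound at 5 concentrations, incubate 48 h, interpolate endpoints linearly. TGI denotes the concentration required for complete inhibition of growth.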

In the case of `O=C(CSc1ncn[nH]1)C[P+](c1ccccc1)(c1ccccc1)c1ccccc1`, the TGI in experiment [1], in experiment [2], in experiment [3], in experiment [4], in experiment [5] and in experiment [6] was > 100 µM each time. Besides, the TGI in experiment [7] is > 100 µM.
As to `COC(=O)CCC1CCc2c(OC)ccc(OC)c2C1=O` (stereo unspecified), the TGI in experiment [1], in experiment [2], in experiment [3], in experiment [4], in experiment [5] and in experiment [6] was > 100 µM throughout.
With `O=C(CC1(O)C(=O)Nc2ccc(Br)cc21)c1ccc(Cl)cc1Cl` (stereo unspecified), the TGI in experiment [1] is > 100 µM; in experiment [3], > 100 µM; in experiment [4], > 100 µM; in experiment [5], 57.1 µM; in experiment [6] it was 68 µM; in experiment [7] it was 29.1 µM.
On to `CCOc1ccc2c(c1)[n+]([O-])c(-c1ccc(Br)cc1)c(N)[n+]2[O-]`, for which the TGI in experiment [1], in experiment [2], in experiment [3], in experiment [4], in experiment [5] and in experiment [6] was > 100 µM in each case. Also, in experiment [7], the TGI was > 100 µM.
Turning to `O=[N+]([O-])c1ccc(C2CC(c3ccccc3Cl)=Nc3ccccc3S2=O)cc1` (stereo unspecified), the TGI in experiment [1] is 56 µM; in experiment [2], 8.87 µM; in experiment [8], 31.1 µM; in experiment [3], 8.57 µM; in experiment [4], 12.4 µM; in experiment [5], 4.37 µM. Further, the TGI in experiment [6] came to 7.47 µM; in experiment [7], 6.89 µM.
With `C[N+](C)(C)CC1CCC/C1=N/O` (stereo unspecified), the TGI in experiment [1] is > 100 µM; in experiment [2] it was > 100 µM; in experiment [3] it was > 100 µM; in experiment [4], > 100 µM; in experiment [5], 39.1 µM; in experiment [6] it was > 100 µM. Also, the TGI in experiment [7] is > 100 µM.
Turning to `COC(=O)C1=C(c2ccc(OC)c(OC)c2)OC(c2cc(OC)c(OC)c(OC)c2)C1` (stereo unspecified), the TGI in experiment [1] was 68.5 µM; in experiment [2] it was > 100 µM; in experiment [3], > 100 µM; in experiment [5] it was > 100 µM; in experiment [7], > 100 µM.
As to `O=C(NCCO)c1ccc([N+](=O)[O-])cc1`, the TGI in experiment [1], in experiment [2], in experiment [3], in experiment [4], in experiment [5] and in experiment [6] was > 100 µM each time. For the same compound, the TGI in experiment [7] is > 100 µM.
With `Cc1nnc2c3nnc(C)n3c3ccccc3n12`, the TGI in experiment [1], in experiment [2], in experiment [3], in experiment [4], in experiment [5] and in experiment [6] was > 100 µM each time.
On to `CS(=O)(=O)NNS(=O)(=O)c1ccccc1`, for which the TGI in experiment [2], in experiment [3], in experiment [4], in experiment [5], in experiment [6] and in experiment [7] was > 100 µM each time.
In the case of `Cn1c(=O)c(NC(=O)C(Cl)(Cl)Cl)nc2ccccc21`, the TGI in experiment [1], in experiment [2], in experiment [3], in experiment [4], in experiment [5] and in experiment [6] was > 100 µM each time. In addition, the TGI in experiment [7] is > 100 µM.
In the case of `O=C(/C=C/c1ccco1)c1ccc(NCc2nc3ccccc3[nH]2)cc1`, the TGI in experiment [1] came to 58.4 µM; in experiment [2], 35.8 µM; in experiment [3], 34.1 µM; in experiment [4] it was 30.6 µM; in experiment [5], 33.5 µM; in experiment [6] it was 31.9 µM. This compound gave a TGI in experiment [7] of 29.4 µM.
Regarding `O=C1NC(=O)C(=Nc2cccc3c(=O)[nH][nH]c(=O)c23)C(c2nc3ccccc3s2)C1=O` (stereo unspecified), the TGI in experiment [1], in experiment [2], in experiment [3], in experiment [4], in experiment [5] and in experiment [6] was > 100 µM each time. In addition, in experiment [7], the TGI is > 100 µM.
On to `S=c1nc(COc2ccc(Cl)cc2Cl)[nH][nH]1`, for which the TGI in experiment [1], in experiment [2], in experiment [3], in experiment [4], in experiment [5] and in experiment [6] was > 100 µM each time. Also, the TGI in experiment [7] was > 100 µM.
On to `CC(=O)NC1C(OCc2ccccc2)OC(CO)C(O)C1OC(C)C(=O)N[C@@H](C)C(=O)N[C@H](CCC(=O)OCCNc1c2ccccc2nc2cccc([N+](=O)[O-])c12)C(N)=O` (stereo partly specified), for which the TGI in experiment [1] is 0.0809 µM; in experiment [2], 0.00433 µM; in experiment [3] it was 0.0679 µM and 0.022 µM; in experiment [4] it was 0.00277 µM and 0.00694 µM; in experiment [5] it was > 0.1 µM and 0.0189 µM; in experiment [6] it was > 0.1 µM.
For the compound `CN(C)c1nnnn1-c1c(N)n(C)c(=O)n(C)c1=O`, the TGI in experiment [1], in experiment [2], in experiment [3], in experiment [4], in experiment [5] and in experiment [6] was > 100 µM in each case. For the same compound, in experiment [7], the TGI is > 100 µM.
